The values below come from ChEMBL document CHEMBL1125494, “A molecular modeling study of the interactions between the antiestrogen drug tamoxifen and several derivatives, and the calcium-binding protein calmodulin” (J Med Chem, 1992).

Bounds are passed on as bounds.

The test is described as follows: Inhibition of calmodulin dependent cAMP phosphodiesterase.
As for `CCC(=C(c1ccc(O)cc1)c1ccc(OCCN(C)C)cc1)c1ccccc1`, the concentration for half-maximal inhibition (IC50) – broadly, the concentration needed to halve the response being measured – was found to be 19 µM.
With `CC/C(=C(\c1ccccc1)c1ccc(OCCN(CC)CC)cc1)c1ccccc1`, it took 10 µM to reach half-maximal inhibition (IC50).
In the case of `CC/C(=C(\c1ccccc1)c1ccc(OCCN2CCNCC2)cc1)c1ccccc1` it was more than 50 µM.
`CC/C(=C(\c1ccc(I)cc1)c1ccc(OCCN(C)C)cc1)c1ccccc1` displayed a 50% inhibitory concentration (IC50) of 2.3 µM. That is a single-digit micromolar value.
`C/C(=C(\c1ccccc1)c1ccc(OCCN(C)C)cc1)c1ccccc1`: 20 µM corresponded to half-maximal inhibition (IC50).
To `CC/C(=C(\c1ccccc1)c1ccc(OCCN(C)C)cc1)c1ccccc1` [TAMOXIFEN] belongs 6.75 µM.
